Source: article PMC8708689

T1: IRP1 (iron regulatory protein 1) (UniProt P21399 1-889)
T1 sequence: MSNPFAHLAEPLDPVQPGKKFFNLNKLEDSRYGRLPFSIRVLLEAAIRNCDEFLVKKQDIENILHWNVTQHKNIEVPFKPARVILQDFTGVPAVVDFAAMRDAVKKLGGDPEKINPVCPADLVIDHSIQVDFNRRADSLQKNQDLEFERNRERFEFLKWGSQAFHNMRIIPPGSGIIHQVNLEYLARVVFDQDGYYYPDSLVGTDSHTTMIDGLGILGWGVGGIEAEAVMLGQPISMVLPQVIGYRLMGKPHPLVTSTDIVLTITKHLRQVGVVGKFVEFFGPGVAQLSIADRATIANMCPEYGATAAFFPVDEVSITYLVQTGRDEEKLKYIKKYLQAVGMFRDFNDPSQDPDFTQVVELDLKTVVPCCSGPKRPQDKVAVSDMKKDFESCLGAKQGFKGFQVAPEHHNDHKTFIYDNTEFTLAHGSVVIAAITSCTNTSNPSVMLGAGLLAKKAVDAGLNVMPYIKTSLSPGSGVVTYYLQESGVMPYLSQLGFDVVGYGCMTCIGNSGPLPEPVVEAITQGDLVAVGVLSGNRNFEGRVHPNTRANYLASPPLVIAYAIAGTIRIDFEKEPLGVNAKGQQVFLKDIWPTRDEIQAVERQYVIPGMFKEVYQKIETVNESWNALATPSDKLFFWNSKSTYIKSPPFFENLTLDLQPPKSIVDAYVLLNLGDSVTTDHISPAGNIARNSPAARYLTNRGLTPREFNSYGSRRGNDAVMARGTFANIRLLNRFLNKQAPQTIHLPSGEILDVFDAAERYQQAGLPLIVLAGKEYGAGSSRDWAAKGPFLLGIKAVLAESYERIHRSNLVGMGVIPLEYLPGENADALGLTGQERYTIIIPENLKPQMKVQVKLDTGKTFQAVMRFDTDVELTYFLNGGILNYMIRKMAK


Experiments:
[1] = test system: APP IRE RNA (RNA, mRNA element) GGUGGCGGCGCGGGCAGAGCAAGGACGCGGCGGAU; test: microscale thermophoresis, labelled IRP1; settings: 150 mM NaCl; binds IRP1/RNA complex, RNA alone not tested; 2 nM IRP1, 600 nM RNA; 25 mM Tris pH 7.4, 0.1% Prionex
[2] = test system: H-ferritin IRE RNA (RNA, mRNA element) GGGGUUUCCUGCUUCAACAGUGCUUGGACGGAACC; test: microscale thermophoresis, labelled IRP1; settings: 150 mM NaCl; IRP1/RNA complex, RNA alone not tested; 2 nM IRP1, 250 nM RNA; same buffer; Posiphen to 50 µM
[3] = target: T1, IRP1 (iron regulatory protein 1); test: MST; no Posiphen; MST: 2 nM labeled IRP1, 25 mM Tris pH 7.4, 150 mM NaCl, 0.1% Prionex, 10 min incubation; temperature not stated; settings: protein: commercial; hairpin

| Kd [1] [nM] | binding [2] | Molecule | Kd [3] [nM] |
| --- | --- | --- | --- |
| 3.2 | no | CN1CC[C@]2(C)c3cc(OC(=O)Nc4ccccc4)ccc3N(C)[C@H]12 | – |
| – | – | GGGGUUUCCUGCUUCAACAGUGCUUGGACGGAACC (structured_RNA) [H-ferritin IRE RNA (canonical)] | 88.5 |
| – | – | GGUGGCGGCGCGGGCAGAGCAAGGACGCGGCGGAU (structured_RNA) [APP IRE RNA (atypical)] | 225 |
